Data on twelve compounds can be found in US8426429B2, “2-amino-quinazoline derivatives useful as inhibitors of β-secretase (BACE)” (Jansssen Pharmaceutica N.V., priority 2004, dated 2013).

Holding throughout (assay type): biochemical
For experiment [1], the target named is T1, β-secretase (BACE) (Homo sapiens, UniProt P56817).
T1 construct: purchased Panvera
The experiment is described as follows: BACE Assay-1 (MCA-substrate, IC50). The settings on record: procedure of Example 158. The method, then: The following standards are reagents were used in this assay: Sodium Citrate trisodium salt dihydrate (Sigma), Citric Acid monohydrate (Merck), PEG8000 (Sigma), MCA-substrate (Bachem), β-secretase (BACE) (Panvera), 96-well plate zwart (Costar (Elscolab)), StatVal (Bachem).
The following standard assay buffer solution was prepared and used in this assay: 0.05 M, pH 5.0 mixture of sodium citrate trisodium salt dihydrate (9.56 g), citric acid monohydrate (3.68 g) and PEG8000 (0.50 g).
The MCA-substrate stock solution was prepared by mixing 10 mg MCA-substrate with 5 mL DMSO for a final solution concentration of 2.0 mg/mL. The substrate work solution was prepared by mixing 0.1 mL substrate in 1.90 mL assay buffer for a final concentration of 0.05 mM. The β-secretase (BACE) work solution was prepared by mixing 8 μL BACE in 2 mL assay buffer for a final concentration of 10 µg/mL.
The screen procedure for this assay was as follows. 60 μL of assay buffer was pippeted into each well of a 96-well plate. To each well was then pipetted 1 μL of test compound at the selected concentration. To each well was then added 20 μL of the β-secretase work solution and […] of the MCA-substrate stock solution.
The procedure for the blank was as follows. 80 μL of assay buffer was pipetted into each well to be used as a blank control. To each well was then added 1 μL of DMSO and 20 μL of MCA-substrate solution in each well.
The procedure for the positive control was as follows. 60 μL of assay buffer was pipetted into each well to be used as a positive control. To each well was then added 1 μL of DMSO, 20 μL of BACE work solution and 20 μL of MCA-substrate stock solution.
For test compounds, measured at multiple concentrations, the measured T0 and T60 values were used to calculate an IC50 value using Graphpad Software (or PIR).

Experiment [2] has as its target T1, β-secretase (BACE). In words: BACE FS1 % Inhibition Assay. The settings on record: for inhibition at 0.3 µM / inhibition at 1 µM / inhibition at 3 µM: read-out: % Inhibition (FS). The procedure, abridged: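 Percent inhibition per compound concentration was referenced to vehicle-treated enzyme and no-enzyme wells. Enzyme at a 4 μg/mL working stock plus compound was mixed for 20 min at room temperature before the FS1 substrate (300 μg/mL working stock) was added for a 1 h room-temperature reaction.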

Experiment [3] has as its target T1, β-secretase (BACE). In words: BACE Assay-2 (FS1 substrate, IC50 and Ki). The settings on record: procedure of Example 159, FS1 substrate. The method, then:
The FS1-substrate stock solution was prepared in DMSO as a 10 mg/mL solution. The FS1-substrate working solution was prepared by diluting the 10 mg/mL stock solution with substrate assay buffer to a final concentration of […]. The β-secretase (BACE) working solution was prepared by diluting a 0.83 mg/mL BACE stock solution with enzyme assay buffer to a final concentration of 4 μg/mL.
Test compounds were dissolved in DMSO at 10 mM.
The procedure for this assay was as follows: 15 μL of BACE working solution was pipetted into each well of a 96-well plate. To each well was then pipetted 2 μL of test compound at the selected concentration. Test compound and BACE were then mixed with a pipettor and incubated for 20 min at room temperature. To each well was then added 10 μL of the FS1 substrate working solution.
The procedure for the positive control was as follows:15 μL of BACE working solution was pipetted into each well to be used as a positive control. To each well was then pipetted 2 μL of vehicle. Vehicle and BACE were then mixed with a pipettor and incubated for 20 min at room temperature. To each well was then added 10 μL of the FS1 substrate working solution.
For test compounds, measured at multiple concentrations, the measured T0 and T60 values were used to calculate an IC50 value using Graphpad Software (or PIR). For test compounds, Ki inhibition was determined as follows: For each compound concentration and positive control, rate of cleavage of substrate (Vi, where i=compound concentration in μM) was determined as Δ Fluorescence/Δ time (min). Cleavage rates (Vi) were plotted as a function of inhibitor concentration in μM [I]. The Ki was then determined by fitting the following equation to the graph of [I] vs Vi Y=aVmax/(50+24*(1+X/Ki)),

For experiment [4], the target named is T1, β-secretase (BACE). In words: BACE % Inhibition Assay ((Aedens)-[…]-(Dabcyl K-amide) substrate). The settings on record: % error ±10%. As to the method:
The substrate stock solution was prepared in DMSO as a 10 mg/mL solution. The substrate working solution was prepared by diluting the 10 mg/mL stock solution with substrate assay buffer to a final concentration of […]. The β-secretase (BACE) working solution was prepared by diluting a 0.83 mg/mL BACE stock solution with enzyme assay buffer to a final concentration of 4 μg/mL.
Test compounds were dissolved in DMSO to 10 mM.
The screening procedure for this assay was as follows: 15 μL of BACE working solution was pipetted into each well of a 96-well plate. To each well was then pipetted 2 μL of test compound at the selected concentration. Test compound and BACE were then mixed with a pipettor and incubated for 20 min at room temperature. To each well was then added 10 μL of the substrate working solution. The plates were then incubated for 1 hour at room temperature.
The procedure for the blank was as follows. 15 μL of assay buffer was pipetted into each well to be used as a blank control. To each well was then added 2 μL of vehicle and 10 μL of substrate working solution. The plates were then incubated for 1 hour at room temperature.
The procedure for the positive control was as follows: 15 μl of BACE working solution was pipetted into each well to be used as a positive control. To each well was then pipetted 2 μL of vehicle. Vehicle and BACE were then mixed with a pipettor and incubated for 20 min at room temperature. To each well was then added 10 μL of the substrate working solution. The plates were the incubated for 1 hour at room temperature.
For test compounds, % inhibition was determined at each concentration as follows: […]

SMILES strings stand for the structures. Where “and” joins values, the source holds several entries; their conditions need not be identical. Identical values can stand only once.

T1 sequence (P56817 46-501): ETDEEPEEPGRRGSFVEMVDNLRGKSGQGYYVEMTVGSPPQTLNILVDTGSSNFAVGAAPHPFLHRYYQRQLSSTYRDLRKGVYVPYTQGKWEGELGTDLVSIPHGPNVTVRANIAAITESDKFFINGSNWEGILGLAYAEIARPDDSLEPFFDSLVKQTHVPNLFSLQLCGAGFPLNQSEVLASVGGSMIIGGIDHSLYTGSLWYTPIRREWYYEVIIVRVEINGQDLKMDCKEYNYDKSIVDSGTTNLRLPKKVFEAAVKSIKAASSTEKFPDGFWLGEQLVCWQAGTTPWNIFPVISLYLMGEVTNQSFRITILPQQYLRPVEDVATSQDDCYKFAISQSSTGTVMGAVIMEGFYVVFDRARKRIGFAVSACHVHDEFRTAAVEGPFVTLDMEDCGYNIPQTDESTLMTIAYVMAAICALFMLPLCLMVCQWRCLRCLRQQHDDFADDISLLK

By IC50 is commonly meant the concentration that inhibits the measured activity by half. Higher therefore signals a need for much substance. Consider `CCCN1Cc2cc(Oc3cccc(CNCc4ccccc4OC)c3)ccc2N=C1N` [Compound 335], for which, in experiment [1], the IC50 stood at 0.24 µM.

`CCCN1Cc2cc(Oc3cccc(CNCc4c(OC)cccc4OC)c3)ccc2N=C1N` [Compound 340] yielded a concentration for half-maximal inhibition (IC50) in experiment [1] of 2 µM.

As a reminder, the inhibition is the change of the read-out against control, counted positive when it falls. What is called Ki is a measure of affinity in units of concentration, obtained from inhibition or displacement. A higher Ki goes with lower affinity. Regarding `CC(C)N1CCC(N(C)C(=O)CC[C@@H](C2CCCCC2)N2Cc3cc(Oc4ccccc4)ccc3N=C2N)CC1` [Compound 728], the inhibition at 0.3 µM in experiment [2] (0.3 μM compound, FS1 substrate) stood at 43%. In addition, the inhibition at 1 µM in experiment [2] (1 μM compound, FS1 substrate) worked out at 58%. Moreover, the inhibition at 3 µM in experiment [2] (3 μM compound, FS1 substrate) was found to be 97%. For the same compound, the affinity in experiment [3], expressed as Ki, was 0.38 µM.

On to `CN(C(=O)CCC(C1CCCCC1)N1Cc2cc(Oc3ccccc3)ccc2N=C1N)C(COCc1ccccc1)C(=O)O` (stereo not drawn) [Compound 781], for which the inhibition at 0.3 µM in experiment [2] (0.3 μM compound, FS1 substrate) stood at 106%. Also, in experiment [2] (1 μM compound, FS1 substrate), the inhibition at 1 µM came out at 109%. In experiment [2] (3 μM compound, FS1 substrate), the inhibition at 3 µM amounted to 121%. In experiment [3], this compound showed a Ki of 0.038 µM.

In experiment [1], `NC1=Nc2ccc(Oc3cccc(NS(=O)(=O)c4ccccc4)c3)cc2CN1CCCCC(=O)N(C1CCCCC1)C1CCCCC1` [Compound 113] displayed an IC50 of 0.99 µM.

For `CN(CCCCC(=O)O)C(=O)CC[C@@H](C1CCCCC1)N1Cc2cc(Oc3ccccc3)ccc2N=C1N` [Compound 752], the inhibition at 0.3 µM in experiment [2] (0.3 μM compound, FS1 substrate) is 45%. Besides, the inhibition at 1 µM in experiment [2] (1 μM compound, FS1 substrate) was found to be 81%. Besides, in experiment [2] (3 μM compound, FS1 substrate), the inhibition at 3 µM was 109%. Affinity in experiment [3] was put at a Ki of 0.221 µM.

The compound `CCCN1Cc2cc(Oc3cccc(CNCc4c(C)cc(C)cc4C)c3)ccc2N=C1N` [Compound 344] had an IC50 in experiment [1] of 0.058 µM.

For orientation: % Inhibition means the drop in the measured response relative to a control, in per cent. A low value points to a response near the control. Take `CCCC(CCCC(=O)N(CC)C1CCCCC1)N1Cc2cc(Oc3ccccc3)ccc2N=C1N` (stereo not drawn) [Compound 105]: the “% Inhibition (FS)” value in experiment [2] (0.3 μM test compound), in experiment [2] (1 μM test compound) and in experiment [2] (3 μM test compound) was less than 30% throughout. Also, the “% Inhibition” value in experiment [4] (3 μM compound) and in experiment [4] (10 μM compound) was less than 30% in each case.

`CN(C(=O)CC[C@@H](C1CCCCC1)N1Cc2cc(Oc3ccccc3)ccc2N=C1N)C1CCC(=O)CC1` [Compound 711]: in experiment [2] (0.3 μM compound, FS1 substrate), the inhibition at 0.3 µM is less than 30%. In experiment [2] (1 μM compound, FS1 substrate), the inhibition at 1 µM was 43%. Besides, in experiment [2] (3 μM compound, FS1 substrate), the inhibition at 3 µM is 113%. The Ki in experiment [3] came out at 0.45 µM.

For the compound `CSc1ccccc1-c1ccc2c(c1)CN(Cc1cccc(C(=O)N(C)C3CCCCC3)c1)C(N)=N2` [Compound 322], the inhibition at 0.3 µM in experiment [2] (0.3 μM test compound) is less than 30%. Besides, in experiment [2] (1 μM test compound), the inhibition at 1 µM is less than 30%. In addition, the inhibition at 3 µM in experiment [2] (3 μM test compound) came to 95%. In addition, the IC50 in experiment [1] is 0.14 µM. The affinity in experiment [3], expressed as Ki, was 0.29 µM.

For `COc1ccccc1-c1ccc2c(c1)CN([C@@H](CCC(=O)N(C)C1CCCCC1)C1CCCCC1)C(N)=N2` [Compound 506], the inhibition at 0.3 µM in experiment [2] (0.3 μM test compound) is 106%. In experiment [2] (1 μM test compound), the inhibition at 1 µM was determined as 115%. Further, the inhibition at 3 µM in experiment [2] (3 μM test compound) came to 128%. The IC50 in experiment [1] amounted to 0.03 µM. In experiment [3], the Ki was 0.018 µM and 0.0075 µM.

Regarding `CC(C)CCC(=O)NCC(C1CCCCC1)N1Cc2cc(Oc3ccccc3)ccc2N=C1N` (stereo not drawn) [Compound 388], the inhibition at 0.3 µM in experiment [4] (0.3 μM compound) was 107%. Further, in experiment [4] (1 μM compound), the inhibition at 1 µM came to 119%. Also, the inhibition at 3 µM in experiment [4] (3 μM compound) came out at 119%. This compound came in with a Ki in experiment [3] of 0.063 µM.
